Laboratory results reported in US7919484B2, “Combination therapy” (Xenon Pharmaceuticals Inc., priority 2005, dated 2011).

What was measured:
[1] = cited from earlier work
SCD = molecular target: T1, SCD (Homo sapiens, UniProt O00767); conditions: known from the art; cited from earlier work
T1 sequence (O00767 1-359): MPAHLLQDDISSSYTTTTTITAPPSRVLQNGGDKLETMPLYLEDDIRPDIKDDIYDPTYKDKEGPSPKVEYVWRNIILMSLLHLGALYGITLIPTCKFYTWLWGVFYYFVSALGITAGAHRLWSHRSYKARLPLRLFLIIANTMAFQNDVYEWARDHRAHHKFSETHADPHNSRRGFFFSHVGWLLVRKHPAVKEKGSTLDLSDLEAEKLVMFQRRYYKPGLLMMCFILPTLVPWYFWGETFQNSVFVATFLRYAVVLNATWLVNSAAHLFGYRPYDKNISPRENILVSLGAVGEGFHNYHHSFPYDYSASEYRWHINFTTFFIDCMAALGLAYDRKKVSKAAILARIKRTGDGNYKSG

SCD enzyme = molecular target: T2, SCD enzyme (Rattus norvegicus, UniProt P07308); assay: Plasma desaturation index (DI) in ZDF rats after treatment (Example 2); format: in vivo; conditions: plasma triglycerides, mean +/- standard deviation, rosiglitazone 10 mg/kg, XEN1 5 mg/kg
T2 construct: indicator of endogenous SCD1 activity; from tissue; host or cells: living male Zucker Diabetic Fatty rats, dosed orally
T2 sequence (P07308 1-358): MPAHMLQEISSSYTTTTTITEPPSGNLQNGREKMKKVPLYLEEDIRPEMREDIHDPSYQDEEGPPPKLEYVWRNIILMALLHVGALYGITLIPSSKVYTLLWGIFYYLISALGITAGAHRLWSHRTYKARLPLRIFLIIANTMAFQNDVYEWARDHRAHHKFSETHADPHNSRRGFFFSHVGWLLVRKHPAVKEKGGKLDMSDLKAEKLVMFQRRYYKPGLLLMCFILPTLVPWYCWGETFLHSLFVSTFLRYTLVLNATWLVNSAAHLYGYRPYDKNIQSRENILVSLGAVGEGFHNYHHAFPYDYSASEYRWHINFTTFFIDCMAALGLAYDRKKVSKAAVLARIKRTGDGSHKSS
Description: Another suitable method is to indirectly measure the SCD-1 inhibitors impact on inhibition of SCD enzyme by measuring a subject's desaturation index (‘DI’) after administration of the SCD-1 inhibitors. DI as employed in this specification means the ratio of the product over the substrate for the SCD enzyme as measured from a given tissue sample. This may be calculated using three different equations 18:1n−9/18:0 (oleic acid over stearic acid); 16:1n−7/16:0 (palmitoleic acid over palmitic acid); and/or 16:1n−7+18:1n−7/16:0 (measuring all reaction products of 16:0 desaturation over 16:0 substrate). DI is primarily measured in liver or plasma triglycerides, but may also be measured in other selected lipid fractions from a variety of tissues.
Desaturation indexes were calculated from the fatty acid profile of circulating plasma triglycerides. […] An additional 0.5 mL of chloroform containing 0.05 mg/mL of glyceryl-triheptadecanoin as an internal standard were also added. Samples were thoroughly vortexed and the phases separated by centrifugation at 2000 rpm for 8 minutes. […]
3 desaturation indexes were calculated from the chromatograms based on absolute peak areas; the ratio of palmitoleic acid to palmitic acid (C16:1n7/C16:0), the ratio of oleic acid to stearic acid (C18:1n9/C18:0) and the ratio of palmitoleic acid and vaccenic acid to palmitic acid (C16:1n7+C18:1n7/C16:0).

[2] = Effect of SCD-1 inhibitor and rosiglitazone co-administration on body weight in ZDF rats (Example 1); format: in vivo, Male Zucker Diabetic Fatty Rats (ZDF); conditions: mean +/- SEM, Rosi 10 mg/kg, XEN103 5 mg/kg daily po; for Final Body Weight: end of treatment
Description: Male Zucker Diabetic Fatty Rats (ZDF) began treatment at the age of 7 weeks of age. Animals were housed three to a cage in a temperature, humidity and light controlled room. The animals were fed a standard rodent diet and had free access to water. Animals were randomized into groups of 9 and placed in the following experimental groups for daily dosing (10:30 am) as described in table 5 below. Animals were weighed three times per week. Food intake was recorded three times per week. XEN 1 is a representative SCD-1 inhibitor compound of the invention. The formulations were: • Vehicle=1% CMC:0.1% Tween 20:10% PG • Rosi-10=rosiglitazone 10 mg/kg in 1% CMC:0.1% Tween 20:10% PG • Rosi-10+XEN1=rosiglitazone 10 mg/kg+XEN1 5 mg/kg in 1% CMC:0.1% Tween 20:10% PG • XEN1=XEN1 5 mg/kg in 1% CMC:0.1% Tween 20:10% PG

SMILES | Inhibition of SCD activity (in words) (SCD) | Final Body Weight [2] | Body Weight Gain - 5 week treatment [2] | also measured
CC(=O)O[C@]1(C(C)=O)CC[C@H]2[C@@H]3C[C@H](C)C4=CC(=O)CC[C@]4(C)[C@H]3CC[C@@]21C [medroxyprogesterone acetate] |  |  |  | Side Effect: increase in body weight ([1]; 6 months): 6.2% increase in
N[C@@H]1C[C@H]1c1ccccc1 (racemic) [Tranylcypromine] |  |  |  | Side Effect (in words) ([1]; human, in vivo): Adverse weight
CCCCCCCCC1=C(CCCCCCCC(=O)O)C1 [Sterculic acid, 8-(2-octylcyclopropenyl)octanoic acid] | non-specifically inhibit SCD activity |  |  | 
O=C(NCCC1CC1)c1ccc(N2CCN(C(=O)c3cc(F)ccc3C(F)(F)F)CC2)nn1 [XEN 1] |  | 312.2 ± 5.1 g | 150.7 ± 3.5 g | Plasma desaturation index (DI) C16:1n7/C16:0 (SCD enzyme): 0.043 +/− 0.004; Plasma desaturation index (DI) C18:1n9/C18:0 (SCD enzyme): 5.874 +/− 0.422
CN(CCOc1ccc(CC2SC(=O)NC2=O)cc1)c1ccccn1 (centres unmarked) [rosiglitazone] |  | 485.3 ± 7.3 g | 321.9 ± 6.5 g | Weight gain associated with low-dose treatment ([1]; 4 mg/day, after one year treatment): about 8 kg/year
CCCCCCCCC1=C(CCCCCCC(=O)O)C1 [malvalic acid, 7-(2-octylcyclopropenyl)heptanoic acid] | non-specifically inhibit SCD activity |  |  | 
